Reference: patent US20050003502A1 (priority 2000, published 2005)

What was measured:
[1] = molecular target: T1, human topoisomerase I (topo70) in covalent complex with duplex 22 mer DNA (Homo sapiens, UniProt P11387); assay: X-ray crystal structure of ternary topo70-DNA-compound complex; assay type: binding
T1 construct: residues 175 to 765 of the natural protein plus an N-terminal initiating methionine; initiating methionine (one added Met before residue 175) (N); made in house; host or cells: insect cells (recombinant baculovirus, pFastBac-topo70 wt)
T1 sequence (P11387 175-765): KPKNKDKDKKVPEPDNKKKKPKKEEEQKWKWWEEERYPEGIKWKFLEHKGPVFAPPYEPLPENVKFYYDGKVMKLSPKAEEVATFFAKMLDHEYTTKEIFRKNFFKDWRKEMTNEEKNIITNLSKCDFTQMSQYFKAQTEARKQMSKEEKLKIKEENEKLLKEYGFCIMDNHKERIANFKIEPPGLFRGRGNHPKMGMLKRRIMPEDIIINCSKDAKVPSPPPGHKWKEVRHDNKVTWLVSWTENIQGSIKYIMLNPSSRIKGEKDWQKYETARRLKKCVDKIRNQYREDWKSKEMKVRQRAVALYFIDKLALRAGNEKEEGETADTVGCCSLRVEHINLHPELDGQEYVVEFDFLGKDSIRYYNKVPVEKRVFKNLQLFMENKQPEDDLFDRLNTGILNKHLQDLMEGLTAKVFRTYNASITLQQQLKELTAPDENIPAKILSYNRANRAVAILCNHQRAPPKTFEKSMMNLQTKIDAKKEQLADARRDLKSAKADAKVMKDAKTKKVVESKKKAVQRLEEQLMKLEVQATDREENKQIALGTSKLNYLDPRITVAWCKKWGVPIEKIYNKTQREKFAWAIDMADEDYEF

[2] = test system: Topo I; conditions: Hsiang et al., Cancer Res 1989; cited from earlier work
[3] = Giovanella et al., Science 1989; cited from earlier work
[4] = molecular target: T2, reconstituted "linker-less" human Topo I (Homo sapiens, UniProt P11387); conditions: Stewart et al., J. Biol. Chem. 1999; cited from earlier work
T2 sequence (P11387 175-659 limits assumed): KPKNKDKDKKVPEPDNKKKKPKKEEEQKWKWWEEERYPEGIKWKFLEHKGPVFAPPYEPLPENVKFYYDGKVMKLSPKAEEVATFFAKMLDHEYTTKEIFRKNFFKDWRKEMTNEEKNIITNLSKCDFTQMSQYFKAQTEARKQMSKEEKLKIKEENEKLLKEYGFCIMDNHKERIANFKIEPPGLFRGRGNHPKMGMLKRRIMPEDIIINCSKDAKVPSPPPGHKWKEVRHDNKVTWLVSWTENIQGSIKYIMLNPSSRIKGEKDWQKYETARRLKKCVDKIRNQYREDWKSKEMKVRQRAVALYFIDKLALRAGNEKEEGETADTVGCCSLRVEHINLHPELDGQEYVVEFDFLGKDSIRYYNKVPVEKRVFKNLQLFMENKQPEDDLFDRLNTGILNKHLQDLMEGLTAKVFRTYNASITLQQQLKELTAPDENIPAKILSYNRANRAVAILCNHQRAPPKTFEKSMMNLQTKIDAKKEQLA
T2 sequence (P11387 713-765 limits assumed): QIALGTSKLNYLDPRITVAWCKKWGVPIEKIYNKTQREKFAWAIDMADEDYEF

[5] = unrestrained full matrix refinement of occupancy factors, standard uncertainty 7%

Structure (SMILES): CCOc1ccc(-c2nc3ccc(-c4nc5ccc(N6CCN(C)CC6)cc5[nH]4)cc3[nH]2)cc1 [Hoecsht-33342]
- binding site relative to camptothecin ([1]; Form 11 structure): do not bind at the same site as camptothecin

Structure (SMILES): CC[C@@](O)(C(=O)[O-])c1cc2n(c(=O)c1CO)Cc1cc3ccccc3nc1-2.[Na+] [sodium carboxylate form of camptothecin]
- Topo I inhibitory activity in vitro [2]: does have Topo I inhibitory activity in vitro
- activity in in vivo cell killing assays [3]: does have

Structure (SMILES): CC[C@@]1(O)C(=O)OCc2c1cc1n(c2=O)Cc2cc3c(CN(C)C)c(O)ccc3nc2-1 [topotecan]
- relaxation-inhibition effect on linker-less Topo I [4]: resistant to the relaxation-inhibition effect
- binding mode in the crystal structure ([1]; Form 9-TTC, Form 9-AG260, Form 10 structures): intercalate at the site of DNA cleavage
- occupancy of closed lactone form in the bound complex [1, 5]: 63%
- occupancy of open carboxylate form in the bound complex [1, 5]: 37%
